Measured values: ChEMBL document CHEMBL1201862, “PubChem BioAssay data set” (2004)
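Test compounds were applied to cells in 96-well plates for 48 hours at 5 doses. GI50 = concentration required for 50% inhibition of growth.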 Active and inactive are the calls of the source. Cut-off read from the data, not from the text of the source: active = GI50 up to about 1.1 µM and inactive = higher.

Tests used:
Experiment in all cases: inhibition of tumour cell growth, NCI panel, 48 h
DLD-1 = tested on: DLD-1
DMS-114 = tested on: DMS-114
DMS-273 = tested on: DMS-273
KM-20L2 = tested on: KM-20L2
LXFL 529 = tested on: LXFL 529
RXF 631 = tested on: RXF 631
SNB-78 = tested on: SNB-78
XF498 = tested on: XF498
HOP-18 = tested on: HOP-18

Compound | GI50 (DLD-1) | GI50 (DMS-114) | GI50 (DMS-273) | GI50 (KM-20L2) | GI50 (LXFL 529) | GI50 (RXF 631) | GI50 (SNB-78) | GI50 (XF498) | GI50 (HOP-18)
O=C(CC1(O)C(=O)Nc2ccccc21)c1ccccc1O (stereo unspecified) | > 100 µM (inactive) | > 100 µM (inactive) | > 100 µM (inactive) | > 100 µM (inactive) | > 100 µM (inactive) | > 100 µM (inactive) | > 100 µM (inactive) | > 100 µM (inactive) | 
O=C(c1cc(=O)c2ccc(O)cc2o1)c1ccc(Cl)cc1Cl | 17.4 µM (inactive) | 3.92 µM (inactive) | 3.89 µM (inactive) | 10.6 µM (inactive) |  | 11.1 µM (inactive) | 31.3 µM (inactive) | 26.8 µM (inactive) | 29.4 µM (inactive)
Cc1nc2c(n1C(C)(C)C)C(=O)c1ccccc1C2=O | 87.3 µM (inactive) |  | 52.8 µM (inactive) | 51.5 µM (inactive) | 67.9 µM (inactive) |  | > 100 µM (inactive) | 44 µM (inactive) | 
CC1=CC(C)(c2c[nH]c3ccccc23)CC(C)(C)c2c1[nH]c1ccccc21 (stereo unspecified) | 13.7 µM (inactive) | 14.9 µM (inactive) |  | 14.8 µM (inactive) | 30.1 µM (inactive) | 14.5 µM (inactive) | 28.2 µM (inactive) | 20.6 µM (inactive) | > 100 µM (inactive)
NC(=O)C12CC3CC(CC(Br)(C3)C1)C2 | > 100 µM (inactive) | > 100 µM (inactive) | > 100 µM (inactive) | > 100 µM (inactive) | > 100 µM (inactive) | > 100 µM (inactive) | > 100 µM (inactive) | > 100 µM (inactive) | > 100 µM (inactive)
O=c1[nH]c(-c2ccc(-c3nc4cc([N+](=O)[O-])ccc4c(=O)[nH]3)cc2)nc2cc([N+](=O)[O-])ccc12 | > 100 µM (inactive) | > 100 µM (inactive) | > 100 µM (inactive) | > 100 µM (inactive) | > 100 µM (inactive) | > 100 µM (inactive) | > 100 µM (inactive) |  | 
CC(C)(C)c1cc2c(OP(c3ccccc3)c3ccccc3)c(c1)Cc1cc(C(C)(C)C)cc(c1OP(c1ccccc1)c1ccccc1)Cc1cc(C(C)(C)C)cc(c1OP(c1ccccc1)c1ccccc1)Cc1cc(C(C)(C)C)cc(c1OP(c1ccccc1)c1ccccc1)C2 | > 5 µM (inactive) | > 5 µM (inactive) | > 5 µM (inactive) | > 5 µM (inactive) | > 5 µM (inactive) |  | > 5 µM (inactive) |  | > 5 µM (inactive)
COc1ccc(/C=C(\NC(=O)c2ccccc2)c2nc3ccccc3[nH]2)cc1 | 33.6 µM (inactive) | 24.8 µM (inactive) | 29.5 µM (inactive) | 38.5 µM (inactive) | 27.4 µM (inactive) |  |  | 18.5 µM (inactive) | 
CC12OOC(c3ccccc31)c1c2ccc2ccccc12 (stereo unspecified) | 1.45 µM (inactive) | 0.885 µM (active) | 8.69 µM (inactive) | 3.66 µM (inactive) | 2.04 µM (inactive) | 8.04 µM (inactive) | 4.11 µM (inactive) |  | 1.86 µM (inactive)
O=C(OCc1ccccc1)N1N=NC2C1C1CC(OCc3ccccc3)(OCc3ccccc3)C2O1 (stereo unspecified) | > 100 µM (inactive) |  | > 100 µM (inactive) | > 100 µM (inactive) | > 100 µM (inactive) |  | > 100 µM (inactive) | > 100 µM (inactive) | > 100 µM (inactive)
COC(=O)C12Oc3ccc(-c4ccc5c(c4O)C(=O)C4=CCC(C)C(O)C4(C(=O)OC)O5)c(O)c3C(=O)C1=CCC(C)C2O (stereo unspecified) | 0.798 µM (active) | 1.3 µM (inactive) | 1.62 µM (inactive) | 1.44 µM (inactive) | 1.19 µM (inactive) | 2.13 µM (inactive) | 1.95 µM (inactive) |  | 2.26 µM (inactive)
O=C1c2ccccc2C(=O)c2c1ccc1c3ccccc3n(Cc3ccccc3)c21 | > 100 µM (inactive) | > 100 µM (inactive) |  |  | > 100 µM (inactive) |  |  | > 100 µM (inactive) | 0.0319 µM (active)
C[C@@H](O)CCC(=O)c1ccoc1 | > 100 µM (inactive) | > 100 µM (inactive) | > 100 µM (inactive) | > 100 µM (inactive) | > 100 µM (inactive) |  | > 100 µM (inactive) |  | > 100 µM (inactive)
COc1cc2cccc(/N=C/c3c(Br)ccc(OC)c3OC(C)C)c2cc1OC | 23.8 µM (inactive) | 25.6 µM (inactive) |  | > 100 µM (inactive) | 26.8 µM (inactive) |  | 38.6 µM (inactive) | 56.9 µM (inactive) | 
Cc1cc(N(CCC#N)CCC#N)ccc1/C=N\c1ccc(C(=O)NN2C(=O)/C(=C/c3ccc(N(CCC#N)CCC#N)cc3)N=C2c2cc([N+](=O)[O-])ccc2Cl)cc1 | 78.9 µM (inactive) | > 100 µM (inactive) | 47.6 µM (inactive) | 67.1 µM (inactive) | 71.6 µM (inactive) | > 100 µM (inactive) | > 100 µM (inactive) | 61.9 µM (inactive) | 5.4 µM (inactive)
C[C@]12CC/C(=N\OC(=O)Nc3ccccc3)C=C1CC[C@@H]1C2CC[C@@]2(C)C1CC[C@@H]2OC(=O)Nc1ccccc1 (stereo partly specified) |  | 23.2 µM (inactive) | > 100 µM (inactive) | > 100 µM (inactive) | 15.5 µM (inactive) |  | > 100 µM (inactive) | 13.4 µM (inactive) | > 100 µM (inactive)
COC(=O)n1c(C[P+](c2ccccc2)(c2ccccc2)c2ccccc2)cc2ccccc21 | 1.06 µM (active) | 1.09 µM (active) | 0.697 µM (active) | 1.94 µM (inactive) | 0.372 µM (active) |  | 3.37 µM (inactive) | 0.746 µM (active) | 
CC(C)(C)CC(C)(C)c1cc2c(O)c(c1)Cc1cc(C(C)(C)CC(C)(C)C)cc(c1O)Cc1cc(C(C)(C)CC(C)(C)C)cc(c1O)Cc1cc(C(C)(C)CC(C)(C)C)cc(c1O)Cc1cc(C(C)(C)CC(C)(C)C)cc(c1O)Cc1cc(C(C)(C)CC(C)(C)C)cc(c1O)Cc1cc(C(C)(C)CC(C)(C)C)cc(c1O)Cc1cc(C(C)(C)CC(C)(C)C)cc(c1O)C2 | > 100 µM (inactive) |  | > 100 µM (inactive) | > 100 µM (inactive) | > 100 µM (inactive) |  | > 100 µM (inactive) | > 100 µM (inactive) | 
CCOC(=O)C(N)CSC(=O)NC (stereo unspecified) | 130 µM (inactive) | 51.3 µM (inactive) | 83.6 µM (inactive) | 171 µM (inactive) |  |  |  | 104 µM (inactive) | 357 µM (inactive)
O/N=C1/C(=C/c2ccccc2)CCCC1C(NO)c1ccccc1 (stereo unspecified) |  | 30.7 µM (inactive) | > 100 µM (inactive) | > 100 µM (inactive) | 49.1 µM (inactive) | > 100 µM (inactive) | 50.6 µM (inactive) | 28.1 µM (inactive) | > 100 µM (inactive)
O=S(=O)(N/N=C/c1cccc(Cl)c1Cl)c1ccccc1 | 45.4 µM (inactive) | 27.7 µM (inactive) | 71.4 µM (inactive) | > 100 µM (inactive) | 70.6 µM (inactive) |  | > 100 µM (inactive) | 54.7 µM (inactive) | 87.3 µM (inactive)
COc1cc(Nc2nc3cc(C)ccc3nc2-c2ccccc2)cc(OC)c1OC |  | 6.9 µM (inactive) | 11.8 µM (inactive) | 30.5 µM (inactive) | 39.7 µM (inactive) |  |  | 19.7 µM (inactive) | 24.3 µM (inactive)
CC(C)[C@H]1CO[C@]2(C)[C@@H]3CN(Cc4ccccc4)C[C@@H]3C(=O)N12 | > 100 µM (inactive) | > 100 µM (inactive) | > 100 µM (inactive) | > 100 µM (inactive) | > 100 µM (inactive) |  |  |  | > 100 µM (inactive)
CN(C)c1n/c(=N/c2cccc(Cl)c2)ss1 | 12.1 µM (inactive) | 11.2 µM (inactive) | 13 µM (inactive) | 17.4 µM (inactive) | 7.14 µM (inactive) | 13.5 µM (inactive) | 18.1 µM (inactive) | 16.7 µM (inactive) | > 100 µM (inactive)
O=C1c2nc3n(c2C(=O)c2c1nc1n2CCC1)CCC3 | 5.09 µM (inactive) | 2.04 µM (inactive) | 3.3 µM (inactive) | 3.61 µM (inactive) | 9.93 µM (inactive) |  | 13.8 µM (inactive) | 6.38 µM (inactive) | 14 µM (inactive)
COc1ccc(C(=O)C2CCC(C(=O)O)C2)cc1 (stereo unspecified) | > 100 µM (inactive) | > 100 µM (inactive) | > 100 µM (inactive) | > 100 µM (inactive) | > 100 µM (inactive) |  | > 100 µM (inactive) |  | 
